Results as given in patent US20250276983A1, “COMPOUNDS AND METHODS FOR MODULATING HER2” (IAMBIC THERAPEUTICS, INC., priority 2022, published 2025).

What was measured:
[1] = target: wtERBB2 (Homo sapiens (Human), UniProt P04626); assay: HotSpot radiometric kinase activity assay, wtERBB2; assay type: biochemical; details: 30 nM wtERBB2, 10 μM 33P-ATP, 20 min preincubation, 2 hours, read-out: HER2 WT IC50
Procedure: The purpose of the wtERBB2, ERBB2-A775_G776insYVMA (ERBB2YVMA), wtEGFR biochemical assay was to evaluate the inhibition (% inhibition and IC50 values) of the small molecule inhibitors by using the “HotSpot” radiometric kinase activity assay. HotSpot assays monitor the […] of kinase substrate by the radioactive gamma phosphate of adenosine triphosphate (33P-ATP) during biochemical reactions. HotSpot assays was performed in steps upon completion of the kinase reaction: deposition of a reaction mixture aliquot onto P81 ion exchange paper, extensive washing of the aforementioned P81 paper using phosphoric acid to remove unbound radiolabeled 33P-ATP from the P81 paper, and finally visualization and quantification of the dried P81 paper utilizing a phosphoimager. […] Typical reaction solutions (10 μL final reaction volume) contained the following buffer conditions: 20 mM Hepes (pH 7.5), 10 mM MgCl2, 1 mM EGTA, 0.01% Brij35, 0.02 mg/mL BSA, 0.1 mM Na3VO4, 2 mM DTT, 1% DMSO. The assay was primed by preparing a fresh 0.2 mg/mL solution of pEY (Sigma Cat: P7244) substrate in the reaction buffer and supplementing that solution with […] of MnCl2 as substrate cofactor (Sigma Cat: M9522). The kinase of interest was then added to the solution at the appropriate concentration (30 nM wtERBB2 from, or 20 nM ERBB2YVMA, or 4 nM wtEGFR) and gently mixed prior to delivery of compound in 100% DMSO by acoustic dispensing (Beckman Echo550). Compound, Kinase, and substrate were allowed to incubate for 20 min at room temperature prior to the initiation of the reaction by addition of 33P-ATP (PerkinElmer Cat: NEG602, final conc 10 μM). […] IC50 determinations were made from a plot of kinase activity as a function of inhibitor concentration fit to the 4-parameter IC50 equation with the enzyme concentration held constant using GraphPad Prism (San Diego).

[2] = tested on: BaF3_HER2YVMA cells; assay: Cell growth inhibition assay, BaF3_HER2YVMA; assay type: cell-based; details: 72 h, BaF3_HER2YVMA cells, 3 days treatment, CellTiterGlo 2.0; read-out: HER2-YVMA IC50 (nM), cell growth inhibition
[3] = tested on: BaF3_HER2WT cells; assay: Cell growth inhibition assay, BaF3_HER2WT; assay type: cell-based; details: 72 h, 3 days treatment, CellTiterGlo 2.0, read-out: HER2 WT IC50 (nM), cell growth inhibition
[4] = tested on: BaF3_EGFRWT cells; assay: Cell growth inhibition assay, BaF3_EGFRWT; assay type: cell-based; details: 72 h, 80 ng/mL recombinant human EGF, 3 days treatment, CellTiterGlo 2.0, read-out: EGFR WT IC50 (nM), cell growth inhibition

Chain of wtERBB2 (P04626 23-1255): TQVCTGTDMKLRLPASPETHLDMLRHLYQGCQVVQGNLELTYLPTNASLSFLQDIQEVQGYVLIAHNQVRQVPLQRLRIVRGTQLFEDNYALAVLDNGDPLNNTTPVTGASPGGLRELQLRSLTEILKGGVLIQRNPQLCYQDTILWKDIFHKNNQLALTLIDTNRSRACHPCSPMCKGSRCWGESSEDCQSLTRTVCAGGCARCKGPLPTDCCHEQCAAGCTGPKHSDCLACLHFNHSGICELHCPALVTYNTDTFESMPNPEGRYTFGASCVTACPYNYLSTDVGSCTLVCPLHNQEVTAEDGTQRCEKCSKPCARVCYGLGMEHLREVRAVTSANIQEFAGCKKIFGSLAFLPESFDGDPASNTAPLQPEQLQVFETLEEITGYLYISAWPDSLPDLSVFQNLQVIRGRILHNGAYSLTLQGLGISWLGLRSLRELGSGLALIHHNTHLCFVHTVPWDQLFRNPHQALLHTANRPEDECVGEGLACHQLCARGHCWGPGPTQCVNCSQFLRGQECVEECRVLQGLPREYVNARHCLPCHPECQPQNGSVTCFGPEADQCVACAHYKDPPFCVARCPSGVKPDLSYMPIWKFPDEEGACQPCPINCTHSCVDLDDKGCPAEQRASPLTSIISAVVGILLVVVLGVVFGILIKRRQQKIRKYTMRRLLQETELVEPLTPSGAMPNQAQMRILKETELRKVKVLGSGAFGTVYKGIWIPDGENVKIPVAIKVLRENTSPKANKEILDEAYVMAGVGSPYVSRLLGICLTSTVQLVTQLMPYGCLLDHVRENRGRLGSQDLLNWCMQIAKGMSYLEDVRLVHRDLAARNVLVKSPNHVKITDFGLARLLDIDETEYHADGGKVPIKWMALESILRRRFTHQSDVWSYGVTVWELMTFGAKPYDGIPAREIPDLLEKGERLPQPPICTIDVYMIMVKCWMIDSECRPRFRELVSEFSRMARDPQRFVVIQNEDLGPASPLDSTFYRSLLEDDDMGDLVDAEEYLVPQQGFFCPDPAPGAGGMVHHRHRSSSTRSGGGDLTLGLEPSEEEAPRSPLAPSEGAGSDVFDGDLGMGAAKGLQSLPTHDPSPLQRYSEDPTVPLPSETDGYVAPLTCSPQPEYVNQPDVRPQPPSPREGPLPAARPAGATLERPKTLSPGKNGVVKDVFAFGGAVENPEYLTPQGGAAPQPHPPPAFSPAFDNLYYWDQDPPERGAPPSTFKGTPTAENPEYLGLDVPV

Structure (SMILES)	IC50 [1] [µM]	IC50 [2] [nM]	IC50 [3] [nM]	IC50 [4] [nM]
C=CC(=O)NCCn1cc(-c2ccn3ncnc(Nc4ccc(Oc5ccn6ncnc6c5)c(C)c4)c23)cn1 [Example 13, N-(2-(4-(4-((4-([1,2,4]triazolo[1,5-a]pyridin-7-yloxy)-3-methylphenyl)amino)pyrrolo[2,1-f][1,2,4]triazin-5-yl)-1H-pyrazol-1-yl)ethyl)acrylamide]	< 0.2	200 to 500	< 200	1500 to 5000
C=CC(=O)NC1CN(c2ccn3ncnc(Nc4ccc(Oc5ccn6ncnc6c5)c(C)c4)c23)C1 [Example 14, N-(1-(4-((4-([1,2,4]triazolo[1,5-a]pyridin-7-yloxy)-3-methylphenyl)amino)pyrrolo[2,1-f][1,2,4]triazin-5-yl)azetidin-3-yl)acrylamide]	< 0.2	< 200	< 200	1500 to 5000
C=C(F)C(=O)NC1CN(c2ccn3ncnc(Nc4ccc(Oc5ccn6ncnc6c5)c(C)c4)c23)C1 [Example 18, N-(1-(4-((4-([1,2,4]triazolo[1,5-a]pyridin-7-yloxy)-3-methylphenyl)amino)pyrrolo[2,1-f][1,2,4]triazin-5-yl)azetidin-3-yl)-2-fluoroacrylamide]	< 0.2	500 to 1500	200 to 500	1500 to 5000
C=C(F)C(=O)N1CC(n2cc(-c3ccn4ncnc(Nc5ccc(Oc6ccn7ncnc7c6)c(C)c5)c34)cn2)C1 [Example 19, 1-(3-(4-(4-((4-([1,2,4]triazolo[1,5-a]pyridin-7-yloxy)-3-methylphenyl)amino)pyrrolo[2,1-f][1,2,4]triazin-5-yl)-1H-pyrazol-1-yl)azetidin-1-yl)-2-fluoroprop-2-en-1-one]	< 0.2	500 to 1500	200 to 500	1500 to 5000
Cc1cc(Nc2ncnn3ccc(N4CCN(C(=O)/C=C/CN(C)C)CC4)c23)ccc1Oc1ccn2ncnc2c1 [Example 22, (E)-1-(4-(4-((4-([1,2,4]triazolo[1,5-a]pyridin-7-yloxy)-3-methylphenyl)amino)pyrrolo[2,1-f][1,2,4]triazin-5-yl)piperazin-1-yl)-4-(dimethylamino)but-2-en-1-one]	< 0.2	< 200	< 200	1500 to 5000
Cc1cc(Nc2ncnn3ccc(C4CCN(C(=O)CCCN(C)C)CC4)c23)ccc1Oc1ccn2ncnc2c1 [Example 23, 1-(4-(4-((4-([1,2,4]triazolo[1,5-a]pyridin-7-yloxy)-3-methylphenyl)amino)pyrrolo[2,1-f][1,2,4]triazin-5-yl)piperidin-1-yl)-4-(dimethylamino)butan-1-one]	< 0.2	1500 to 5000	500 to 1500	1500 to 5000
Cc1cc(Nc2ncnn3ccc(C4CN(C(=O)/C=C/CN5CC(F)(F)C5)C4)c23)ccc1Oc1ccn2ncnc2c1 [Example 91, (E)-1-(3-(4-((4-([1,2,4]triazolo[1,5-a]pyridin-7-yloxy)-3-methylphenyl)amino)pyrrolo[2,1-f][1,2,4]-triazin-5-yl)azetidin-1-yl)-4-(3,3-difluoroazetidin-1-yl)but-2-en-1-one]	< 0.2	500 to 1500	< 200	1500 to 5000
Cc1cc(Nc2ncnn3ccc(C4CC5(C4)CN(C(=O)/C=C/CN(C)C)C5)c23)ccc1Oc1ccn2ncnc2c1 [Example 95, (E)-1-(6-(4-((4-([1,2,4]triazolo[1,5-a]pyridin-7-yloxy)-3-methylphenyl)amino)pyrrolo[2,1-f][1,2,4]triazin-5-yl)-2-azaspiro[3.3]heptan-2-yl)-4-(dimethylamino)but-2-en-1-one]	< 0.2	500 to 1500	200 to 500	1500 to 5000
Cc1cc(Nc2ncnn3ccc(C4CN(C(=O)/C=C/CN5CCC5)C4)c23)ccc1Oc1ccn2ncnc2c1 [Example 102, (E)-1-(3-(4-((4-([1,2,4]triazolo[1,5-a]pyridin-7-yloxy)-3-methylphenyl)amino)pyrrolo[2,1-f][1,2,4]triazin-5-yl)azetidin-1-yl)-4-(azetidin-1-yl)but-2-en-1-one]	< 0.2	1500 to 5000	500 to 1500	1500 to 5000
Cc1cc(Nc2ncnn3ccc(-c4cnn(CCNC(=O)/C=C/CN(C)C)c4)c23)ccc1Oc1ccn2ncnc2c1 [Example 103, (E)-N-(2-(4-(4-((4-([1,2,4]triazolo[1,5-a]pyridin-7-yloxy)-3-methylphenyl)amino)pyrrolo[2,1-f][1,2,4]triazin-5-yl)-1H-pyrazol-1-yl)ethyl)-4-(dimethylamino)but-2-enamide]	< 0.2	1500 to 5000	1500 to 5000	1500 to 5000
C=CC(=O)N1CCC2(C1)CN(c1ccn3ncnc(Nc4ccc(Oc5ccn6ncnc6c5)c(C)c4)c13)C2 [Example 155, 1-(2-{4-[(3-methyl-4-{[1,2,4]triazolo[1,5-a]pyridin-7-yloxy}phenyl)amino]pyrrolo[2,1-f][1,2,4]triazin-5-yl}-2,6-diazaspiro[3.4]octan-6-yl)prop-2-en-1-one]	< 0.2	200 to 500	< 200	1500 to 5000

Next, values leading:

IC50 [1] [µM]	IC50 [2] [nM]	IC50 [3] [nM]	IC50 [4] [nM]	Structure (SMILES)
< 0.2	< 200	< 200	1500 to 5000	C=CC(=O)N1CCC(c2ccn3ncnc(Nc4ccc(Oc5ccn6ncnc6c5)c(C)c4)c23)C1 (stereo not shown) [Example 11, 1-(3-(4-((4-([1,2,4]triazolo[1,5-a]pyridin-7-yloxy)-3-methylphenyl)amino)pyrrolo[2,1-f][1,2,4]triazin-5-yl)pyrrolidin-1-yl)prop-2-en-1-one]
< 0.2	500 to 1500	200 to 500	1500 to 5000	C=CC(=O)N1CC2(C1)CN(c1ccn3ncnc(Nc4ccc(Oc5ccn6ncnc6c5)c(C)c4)c13)C2 [Example 16, 1-(6-(4-((4-([1,2,4]triazolo[1,5-a]pyridin-7-yloxy)-3-methylphenyl)amino)pyrrolo[2,1-f][1,2,4]triazin-5-yl)-2,6-diazaspiro[3.3]heptan-2-yl)prop-2-en-1-one]
< 0.2	1500 to 5000	1500 to 5000	1500 to 5000	Cc1cc(Nc2ncnn3ccc(C4CN(C(=O)/C=C/CN)C4)c23)ccc1Oc1ccn2ncnc2c1 [Example 87, (E)-1-(3-(4-((4-([1,2,4]triazolo[1,5-a]pyridin-7-yloxy)-3-methylphenyl)amino)pyrrolo[2,1-f][1,2,4]triazin-5-yl)azetidin-1-yl)-4-aminobut-2-en-1-one]
< 0.2	< 200	< 200	1500 to 5000	Cc1cc(Nc2ncnn3ccc(C4CCCN(C(=O)/C=C/CN(C)C)CC4)c23)ccc1Oc1ccn2ncnc2c1 (stereo not shown) [Example 93, (E)-1-(4-(4-((4-([1,2,4]triazolo[1,5-a]pyridin-7-yloxy)-3-methylphenyl)amino)pyrrolo[2,1-f][1,2,4]triazin-5-yl)azepan-1-yl)-4-(dimethylamino)but-2-en-1-one]
< 0.2	500 to 1500	< 200	1500 to 5000	Cc1cc(Nc2ncnn3ccc(C4CCCN(C(=O)/C=C/CN(C)C)C4)c23)ccc1Oc1ccn2ncnc2c1 (stereo not shown) [Example 96, (E)-1-(3-(4-((4-([1,2,4]triazolo[1,5-a]pyridin-7-yloxy)-3-methylphenyl)amino)-pyrrolo-[2,1-f][1,2,4]-triazin-5-yl)piperidin-1-yl)-4-(dimethylamino)but-2-en-1-one]
